Source: patent publication US20070149446A1, “Tamandarin analogs and fragments thereof and methods of making and using” (The Trustees of the University of Pennsylvania Center for …, priority 2003, published 2007)
Like-named read-outs stand apart in the source and are kept apart here. Starred links: 1 amine or outer side, 2 acyl side, 3 side chain; linkers in the order of their positions; H or OH if unused. Positions of bridges follow the written chain, without caps; N, C: chain ends. Non-standard residues stand in square brackets, D forms with d. Residues, ends and D or L forms follow the SMILES beside them. Hexanoyl(3S-OH,4R-NH2,5-Me) = CC(C)[C@@H](N[*:1])[C@@H](O)CC(=O)[*:2]; NMe2Nal = CN[C@@H](Cc1ccc2ccccc2c1)C(=O)O; dNMeL = CN[C@H](CC(C)C)C(=O)O; Hiv = CC(C)[C@H](O)C(=O)O; Lac = C[C@H](O)C(=O)O

Assays:
[1] = amide bond, HATU/NMM, CH3CN, 25.0 °C, 17.0 h
[2] = tested on: SK-MEL-28; experiment: SRB colorimetric cell growth inhibition assay, SK-MEL-28
Method: (§1) This form of assay employs 96 well cell culture microplates of […] diameter (Faircloth, 1988; Mosmann, 1983). Most of the cell lines are obtained from American Type Culture Collection (ATCC) derived from different human cancer types.
(§2) Cells are maintained in RPMI 1640 10% FBS, supplemented with 0.1 g/l penicillin and 0.1 g/l streptomycin sulfate and then incubated at 37° C., 5% CO2 and 98% humidity. For the experiments, cells were harvested from subconfluent cultures using trypsin and resuspended in fresh medium before plating.
(§3) Cells are seeded in 96 well microtiter plates, at 5×10^3 cells per well in aliquots of 195 μl medium, and they are allowed to attach to the plate surface by growing in drug free medium for 18 hours. Afterward, samples are added in aliquots of 5 μl in a ranging from 10 to 10-8 μg/ml, dissolved in DMSO/EtOH/PBS (0.5:0.5:99). After 48 hours exposure, the antitumor effect are measured by the SRB methodology: cells are fixed by adding 50 μl of cold 50% (wt/vol) trichloroacetic acid (TCA) and incubated for 60 minutes at 4° C.
(§4) Plates are washed with deionised water and dried. One hundred μl of SRB solution (0.4% wt/vol in 1% acetic acid) is added to each microtiter well and incubated for 10 minutes at room temperature. Unbound SRB is removed by washing with 1% acetic acid. Plates are air dried and bound stain is solubilized with Tris buffer. Optical densities are read on a automated spectrophotometric plate reader at a single wavelength of 490 nm.
(§5) The values for mean+/−SD of data from triplicate wells are calculated.
(§6) Some parameters for cellular responses can be calculated: GI=growth inhibition, TGI=total growth inhibition (cytostatic effect) and LC=cell killing (cytotoxic effect).

[3] = tested on: PANC1; experiment: SRB colorimetric cell growth inhibition assay, PANC1
Method: as §1, §2, §3, §4, §5, §6

[4] = tested on: DU145; experiment: SRB colorimetric cell growth inhibition assay, DU145
Method: as §1, §2, §3, §4, §5, §6

[5] = tested on: HELA; experiment: SRB colorimetric cell growth inhibition assay, HELA
Method: as §1, §2, §3, §4, §5, §6

[6] = tested on: LOVO-DOX; experiment: SRB colorimetric cell growth inhibition assay, LOVO-DOX
Method: as §1, §2, §3, §4, §5, §6

[7] = tested on: HELA-APL; experiment: SRB colorimetric cell growth inhibition assay, HELA-APL
Method: as §1, §2, §3, §4, §5, §6

[8] = tested on: SK-BR3; experiment: SRB colorimetric cell growth inhibition assay, SK-BR3
Method: as §1, §2, §3, §4, §5, §6

[9] = tested on: LN-caP; experiment: SRB colorimetric cell growth inhibition assay, LN-caP
Method: as §1, §2, §3, §4, §5, §6

[10] = tested on: IGROV; experiment: SRB colorimetric cell growth inhibition assay, IGROV
Method: as §1, §2, §3, §4, §5, §6

[11] = tested on: IGROV-ET; experiment: SRB colorimetric cell growth inhibition assay, IGROV-ET
Method: as §1, §2, §3, §4, §5, §6

[12] = tested on: K562; experiment: SRB colorimetric cell growth inhibition assay, K562
Method: as §1, §2, §3, §4, §5, §6

[13] = tested on: HT29; experiment: SRB colorimetric cell growth inhibition assay, HT29
Method: as §1, §2, §3, §4, §5, §6

[14] = tested on: LOVO; experiment: SRB colorimetric cell growth inhibition assay, LOVO
Method: as §1, §2, §3, §4, §5, §6

[15] = tested on: A549; experiment: SRB colorimetric cell growth inhibition assay, A549
Method: as §1, §2, §3, §4, §5, §6

[16] = Homo sapiens, 48 h, read-out: LC50

COc1ccc(C[C@H]2C(=O)O[C@H](C)[C@H](NC(=O)OC(C)(C)C)C(=O)N[C@H](C(C)C)[C@@H](O)CC(=O)O[C@@H](C(C)C)C(=O)N[C@@H](CC(C)C)C(=O)N(C)[C@@H](C)C(=O)N2C)cc1
ring closure, yield of all isomers ([1]; from CN[C@@H](Cc1ccc(OC)cc1)C(=O)O[C@H](C)[C@H](NC(=O)OC(C)(C)C)C(=O)N[C@H](C(C)C)[C@@H](O)CC(=O)O[C@H](C(=O)N[C@@H](CC(C)C)C(=O)N(C)[C@@H](C)C(=O)O)C(C)C, 4.8 mM): 48%

CC(C)C[C@@H]1NC(=O)[C@H](C(C)C)OC(=O)C[C@H](O)[C@@H](C(C)C)NC(=O)[C@@H](NC(=O)[C@@H](CC(C)C)N(C)C(=O)[C@@H]2CCCN2C(=O)[C@H](C)O)[C@@H](C)OC(=O)[C@H](Cc2ccc3ccccc3c2)N(C)C(=O)[C@@H]2CCCN2C1=O [Compound 93, [2-Naphthylala^5]-Tamandarin B] (H-[Lac]P[dNMeL]T[Hexanoyl(3S-OH,4R-NH2,5-Me)][Hiv]LP[NMe2Nal]; ester 4-C)
GI50 ([2]; Homo sapiens, SK-MEL-28, 48 h): 4.14 nM | CC50 ([2]; Homo sapiens, SK-MEL-28, 48 h, read-out: LC50): 87.9 nM | TGI ([2]; SK-MEL-28 cells, total growth inhibition, SRB, 48 hours exposure): 1.52E−08 Molar | GI50 ([3]; Homo sapiens, PANC-1, 48 h): 6.24 nM | CC50 ([3]; Homo sapiens, PANC-1, 48 h, read-out: LC50): 9410 nM | TGI ([3]; PANC1 cells, total growth inhibition, SRB, 48 hours exposure): 9.00E−08 Molar | TGI ([4]; DU145 cells, total growth inhibition, SRB, 48 hours exposure): 4.39E−09 Molar | GI50 ([4]; Homo sapiens, DU-145, 48 h): 2.17 nM | CC50 ([4]; Homo sapiens, DU-145, 48 h, read-out: LC50): 8.83 nM | TGI ([5]; HELA cells, total growth inhibition, SRB, 48 hours exposure): 9.79E−09 Molar | GI50 ([5]; Homo sapiens, HeLa, 48 h): 2.81 nM | CC50 ([5]; Homo sapiens, HeLa, 48 h, read-out: LC50): 54.9 nM | GI50 ([6]; Homo sapiens, 48 h): 429 nM | CC50 [6, 16]: 9410 nM | TGI ([6]; LOVO-DOX cells, total growth inhibition, SRB, 48 hours exposure): 2.33E−06 Molar | TGI ([7]; HELA-APL cells, total growth inhibition, SRB, 48 hours exposure): 1.68E−07 Molar | GI50 ([7]; Homo sapiens, 48 h): 36.4 nM | CC50 [7, 16]: 2280 nM | GI50 ([8]; Homo sapiens, SK-BR-3, 48 h): 1.83 nM | CC50 ([8]; Homo sapiens, SK-BR-3, 48 h, read-out: LC50): 4650 nM | TGI ([8]; SK-BR3 cells, total growth inhibition, SRB, 48 hours exposure): 1.89E−08 Molar | GI50 ([9]; Homo sapiens, LNCaP, 48 h): 1.98 nM | CC50 ([9]; Homo sapiens, LNCaP, 48 h, read-out: LC50): 9.7 nM | TGI ([9]; LN-caP cells, total growth inhibition, SRB, 48 hours exposure): 4.33E−09 Molar | GI50 ([10]; Homo sapiens, IGROV, 48 h): 2.09 nM | CC50 ([10]; Homo sapiens, IGROV, 48 h, read-out: LC50): 666 nM | TGI ([10]; IGROV cells, total growth inhibition, SRB, 48 hours exposure): 1.28E−08 Molar | GI50 ([11]; Homo sapiens, 48 h): 159 nM | CC50 [11, 16]: 2810 nM | TGI ([11]; IGROV-ET cells, total growth inhibition, SRB, 48 hours exposure): 6.54E−07 Molar | GI50 ([12]; Homo sapiens, K562, 48 h): 20 nM | CC50 ([12]; Homo sapiens, K562, 48 h, read-out: LC50): 198 nM | TGI ([12]; K562 cells, total growth inhibition, SRB, 48 hours exposure): 4.73E−08 Molar | TGI ([13]; HT29 cells, total growth inhibition, SRB, 48 hours exposure): 6.98E−08 Molar | GI50 ([13]; Homo sapiens, HT-29, 48 h): 4.6 nM | CC50 ([13]; Homo sapiens, HT-29, 48 h, read-out: LC50): 5580 nM | GI50 ([14]; Homo sapiens, LoVo, 48 h): 6.84 nM | CC50 ([14]; Homo sapiens, LoVo, 48 h, read-out: LC50): 2490 nM | TGI ([14]; LOVO cells, total growth inhibition, SRB, 48 hours exposure): 4.27E−08 Molar | TGI ([15]; A549 cells, total growth inhibition, SRB, 48 hours exposure): 4.86E−08 Molar | GI50 ([15]; Homo sapiens, A549, 48 h): 6.96 nM | CC50 ([15]; Homo sapiens, A549, 48 h, read-out: LC50): 595 nM

COc1ccc(C[C@H]2C(=O)O[C@H](C)[C@H](NC(=O)OC(C)(C)C)C(=O)N[C@H](C(C)C)[C@@H](O)CC(=O)O[C@@H](C(C)C)C(=O)N[C@@H](CC(C)C)C(=O)N[C@@H](C)C(=O)N2C)cc1
ring closure, yield of all isomers ([1]; from CN[C@@H](Cc1ccc(OC)cc1)C(=O)O[C@H](C)[C@H](NC(=O)OC(C)(C)C)C(=O)N[C@H](C(C)C)[C@@H](O)CC(=O)O[C@H](C(=O)N[C@@H](CC(C)C)C(=O)N[C@@H](C)C(=O)O)C(C)C, 4.6 mM): 60%
